Laboratory results taken from patent US12691124B2, “Methods of controlling and improving brain health” (ICAHN SCHOOL OF MEDICINE AT MOUNT SINAI, priority 2019, dated 2026).

Tests used:
primary cortical neurons = test: Neuronal longevity in primary cortical neuron culture (LDH, propidium iodide, cleaved caspase 3); type: cell-based, mouse
Text: Primary Cortical Neuron Culture. Embryonic day 18 (E18) timed-pregnant female mice were anesthetized with CO2 and sacrificed by cervical dislocation. In a dissection hood, 24-26 embryos per experiment were collected through an incision of the mother's abdomen, taken out of the amniotic sacs and decapitated in ice cold Hank's Balanced Salt Solution (HBSS). Using fine scissors and forceps, brains were rapidly dissected and the cortex cleared from meninges and isolated under a dissection microscope. Cortices were collected in ice cold HBSS and kept on ice until all embryos had been dissected. In a tissue culture hood, HBSS was removed and the cortex tissue digested by 0.25% Trypsin-EDTA for 12 minutes at 37° C., followed by DNase1 treatment for 10 minutes at 37° C. The tissue was dissociated by serial trituration with a 25 ml serological pipette, followed by trituration with 10 ml and 5 ml serological pipettes. Cell suspension was washed once with DMEM medium, supplemented with 10% FBS and 1% penicillin/streptomycin and passed through a […] cell strainer before counted on a hemocytometer. Single cells were seeded on poly-D-lysine (0.1 mg ml-1) coated wells at a density of 1×10^6 cells per well on a 12-well plate. Cells were grown in Neurobasal medium, complemented with B27 supplement, N2 supplement, and 0.5 mM L-glutamine and maintained at 37° C. in 5% CO2 for 1 week. Cultures were treated with DMSO (0.2%), I-BET858 (1 μM, 0.2% DMSO), BDNF (50 ng/ml), or BDNF+I-BET858 for 2 and 12 h on day 7 in vitro. Cultures were washed with phosphate-buffered saline (PBS) on ice and processed for RNA isolation using TRIzol/Chloroform extraction.
LDH Assay. LDH activity was measured using the Pierce LDH Cytotoxicity Assay Kit. Culture media was incubated with an equal volume of LDH master mix and incubated for 30 minutes at room temperature in the dark. After, the same volume of stop reagent was added and the absorbance was measured at 490 and 680 nm. Maximum LDH measurements were obtained by adding lysis buffer to release the total amount of LDH in the sample. LDH release is calculated as a percent of the maximum.
Propidium Iodide Assay. Propidium iodide (1 mg/ml, Life Technologies #P3566) was added to each culture well at a final concentration of 0.5 μg/ml. Cultures were incubated for 30 minutes at 37 degrees then washed with PBS. Cells were then fixed with 4% paraformaldehyde in PBS for 15 minutes at room temperature. After fixation, cells were washed with PBS and then mounted using mounting media containing DAPI.
In order to understand the effect of chronic BET inhibition on neuronal survival, primary cortical mouse neurons were cultured in the presence or absence of the brain permeable BET inhibitor IBET858 (1 μM). To quantify cell death over time, the levels of lactate dehydrogenase (LDH) were measured in culture media which is presumably released during cell death as the membranes become permeable. […] The observed decrease in LDH activity after BET inhibition occurs in a dose-dependent manner. LDH activity, which is an indirect measure of cell death, may be affected by other factors such as changes in metabolism or expression of the LDH genes. Therefore in order to confirm these findings, propidium iodide (PI) staining was used to directly quantify the number of dead neurons over time. This membrane impermeable dye increases in fluorescence 20-30 fold after intercalating DNA265. […] To give context to the magnitude of this effect on survival, this experiment was repeated with a direct comparison to the mTOR inhibitor, rapamycin (20 nM).

young mice = settings: cited from earlier work
C57bl/6 mice = test: Brain gene expression in IBET858 treated mice; type: in vivo, mouse
Procedure: In vivo I-BET858 treatment. IBET858 was developed and validated by GlaxoSmithKline. I-BET858 solutions used for in vivo studies (3 mg/ml) were prepared in 10% Kleptose buffer with 5% DMSO (pH 6.5) and maintained at 4° C. I-BET858 was made fresh daily, buffers were made fresh each week. 30 mg/kg I-BET858 or vehicle (Kleptose buffer pH=6.5) was delivered by i.p injection. For acute treatment, 6-week-old mice received a single I-BET858 injection. […] Gene expression and behavioral changes were assessed in 6 weeks old mice at 4 h (acute, n=8-10 for behavior, n=2 for gene expression analysis) or 12 h (chronic, n=10 for behavior, n=2 for gene expression analysis) after the (last) I-BET858 injection, respectively.
RNA Isolation. For in vitro gene expression analysis, neuronal culture plates were washed once with PBS, and TRIzol was added directly to cultures to isolate RNA (n=3 per group). For in vivo gene expression analysis, mice were anesthetized with CO2 and decapitated. The striata from two control and acute or chronic I-BET treated mice were rapidly dissected on ice and frozen in liquid nitrogen. RNA extraction from frozen samples was performed using TRIzol/Chloroform according to manufacturer's instructions (Invitrogen Corporation, Carlsbad, CA). RNA was precipitated overnight at −80° C. in isopropanol with 0.15 M sodium acetate, washed twice with 70% ethanol, air-dried, and resuspended in RNase-free water. RNA samples were purified using Rneasy Micro columns (Qiagen) with on-column DNAse treatment as specified by manufacturer. RNA integrity was assayed using nanodrop and RNA Pico chip on Bioanalyzer 2100 (Agilent, Santa Clara, CA) for quality RIN>9.
IBET treatment induces neuroprotective gene expression changes in the hippocampus of mice in vivo (FIG. 23A).

mTOR = mTOR signaling in neurons (p70-S6k Thr389 phosphorylation); type: cell-based, mouse
Procedure: Immunoblotting. Mice were anesthetized with CO2 followed by decapitation, and the region of interest was rapidly dissected and frozen in liquid nitrogen and stored at −80° C. until further processing. Samples were sonicated at 4° C. in 1% SDS solution supplemented with protease, Trichostatin A (500 ng/ml) and PhosStop phosphatase inhibitor (Roche, Switzerland), and boiled for ten minutes. The protein concentration was determined using a BCA protein assay kit (ThermoFisherScientific, USA) according to the manufacturer's instructions. Protein samples were diluted in equal volume of 2×LDS sample buffer (Invitrogen) and supplemented with DTT to a final concentration of 200 mM (Sigma).
Additionally, there is significant agreement between genes sensitive to BET inhibition and mTOR inhibition.

[1] = IBET858 treated mice compared to vehicle

SMILES: CC(=O)N1c2ccc(-c3ccc(CN4CCCCC4)cc3)cc2[C@H](Nc2ccccc2)CC1C (stereo in doubt) [IBET858]
- dose dependence of decrease in LDH activity (primary cortical neurons): dose-dependent
- neuron survival over time, propidium iodide assay (primary cortical neurons; 1 μM): survive significantly longer than control
- number of cells positive for cleaved caspase 3 (primary cortical neurons; 1 μM): decreased
- LDH activity in culture media over time (primary cortical neurons; 1 μM, from day 16 in vitro): significantly less LDH activity
- neuronal lifespan, IBET858 compared with rapamycin (primary cortical neurons; IBET858 1 μM, rapamycin 20 nM): to the same extent as rapamycin if not more
- neuronal gene expression in young mice (young mice; mouse, in vivo): selective suppression of neuronal gene expression
- behavioural phenotype of young mice (young mice; pharmacological suppression of BET proteins in the brain of young mice): development of an autism-like syndrome
- Casp3 gene expression levels (C57bl/6 mice; 5 week IBET858 treatment in vivo): unaffected
- autophagy and proteostasis genes (C57bl/6 mice; [1]): increased
- genes involved in metabolic pathways (C57bl/6 mice; [1]): downregulated
- mTOR activity, phosphorylation of p70-S6k at Thr389 (mTOR): significant, time-dependent decrease
- mTOR protein levels (mTOR): does not affect
